Common to all, as to format: cell-based, human
The subject of test [1] is AAVS1. As to the kind of experiment: Percent editing at AAVS1 by NGS in NK cells with DNAPK inhibitors, Example 29. Conditions: LNP 10 ug/ml total RNA cargo, seven days post LNP treatment.
Procedure: (§1) Human primary NK cells were activated and expanded using K562-41BBL cells as feeder cells in OpTmizer media with 5% human AB serum, 500 U/mL IL-2, and 5 ng/ml IL-15 for 3 days. NK cells were plated at 50,000 cells per well in triplicate in OpTmizer media supplemented as described above with DNAPKi at concentrations indicated in Tables 78 and 79. […] The pre-incubated LNPs were added to NK cells suspended in the same media at a final concentration of 10 ug/ml of total RNA cargo in triplicate. For a subset of samples, AAV encoding GFP flanked by regions homologous to the AAVS1 edit site were added at a multiplicity of infection (MOI) of 600,000 genome copies following editing.
For test [2], the system named is AAVS1. As to the kind of experiment: GFP insertion (GFP++) in NK cells with LNP, AAV and DNAPK inhibitors, Example 29. Conditions: LNP 10 ug/ml, seven days following editing.
Procedure: as §1
The next test deals with B2M. As to the kind of experiment: B2M editing by NGS in T cells with different ionizable lipid formulations (Lipid A, Lipid B), Example 7. Particulars: LNPs formulated with the named ionizable lipid. As for the experimental part: LNPs formulated with different ionizable lipids were tested for T cell delivery efficacy. T cells were prepared, thawed and activated as in Example 5. Forty-eight hours post activation, T cells were treated with LNPs delivering Cas9 mRNA and gRNA G000529 (SEQ ID NO: 701) targeting B2M. LNPs were generally prepared as Example 1. Lipid A formulations were prepared at a ratio of 50/9/38/3 ionizable Lipid A, cholesterol, DSPC, and PEG2k-DMG. Lipid B compositions were formulated at a ratio of 50/10/38.5/1.5 ionizable lipid nonyl 8-((8,8-bis(octyloxy)octyl)(2-hydroxyethyl)amino)octanoate, cholesterol, DSPC, and PEG2k-DMG.

For another test, the system named is TRAC. As to the kind of experiment: Lipid screen in activated B cells: percent editing by NGS, Example 23.3. Conditions: LNPs formulated with the named ionizable lipid, 5 μg/ml. The procedure: A leukopak from a healthy human donor was obtained commercially (Hemacare) and B cells were isolated by CD19 positive selection using the StraightFrom Leukopak CD19 MicroBead kit (Miltenyi, 130-117-021) on a MultiMACS Cell24 Separator Plus instrument. Following MACS isolation, CD19+ B cells were activated in B Cell Media 3 or B Cell Media 7, each supplemented with 100 ng/ml MEGACD40L. […] LNPs were generally prepared as Example 1 using the ionizable and PEG lipids described in Table 68 with the lipid composition expressed as the molar ratio of ionizable lipid/cholesterol/DSPC/PEG, respectively.
Editing was more efficient in B cells cultured in StemSpan compared to IMDM.

Test [3] relates to TRBC. Put plainly: CD3 negative cells after treating activated T cells with LNPs preincubated with ApoE3, ApoE4 or ApoA1, Example 19.
Procedure: All cells were cultured at 37 C for 48 hours. 100,000 T cells were resuspended in complete T cell media without human serum for 15-30 min prior to LNP transfection.
Cells were washed 48 hr post LNP treatment with T cell media to wash and replaced with fresh complete T cell media.
Five days post LNP treatment, T cells were phenotyped by flow cytometry to determine CD3 protein surface expression. […] Cells were subsequently washed, analyzed on a CytoFLEX S instrument (Beckman Coulter) using the FlowJo software package. T cells were gated on size and CD3 expression.
Test [4] has as its system TRBC. As to the kind of experiment: CD3 negative cells after treating non-activated T cells with LNPs preincubated with ApoE3, ApoE4 or ApoA1, Example 19. As for the experimental part: Healthy human donor leukopak was obtained commercially (Hemacare) and T cells were isolated by CD4/CD8 positive selection using the StraightFrom® Leukopak® CD4/CD8 MicroBeads (Miltenyi, Catalog, 130-122-352) following the manufacturer's protocol on MultiMACS Cell24 Separator Plus instrument.
Upon thaw, T cells were cultured in complete T cell media: T cell base media composed of XVIVO-15 media (Fisher, BE02-060Q), 1% Pen-Strep (Corning, 30-002-CI), 50 uM beta-mercaptoethanol, and N-Acetyl L-Cysteine (Fisher, ICN19460325), which was further supplemented with 5% human AB serum (Gemini Bio Products, 100-512), 200 U/mL IL-2 (Peprotech, 200-02), 5 ng/mL IL7 (Peprotech, 200-07), 5 ng/mL IL-15 (Peprotech, 200-15)). At this stage, a portion of cells were activated by addition of 1:100 dilution of TransAct (Miltenyi Biotech, Catalog #130-111-160). All cells were cultured at 37 C for 48 hours.
LNPs were generally prepared as Example 1 with the lipid composition of 50/9/39.5/1.5, expressed as the molar ratio of ionizable lipid A/cholesterol/DSPC/PEG, respectively.
Briefly, T cells were incubated in antibody targeting CD3 (Biolegend, 300441). Cells were subsequently washed, analyzed on a CytoFLEX S instrument (Beckman Coulter) using the FlowJo software package. T cells were gated on size and CD3 expression.

Setting [5] is: Apo protein 0.08 ug/mL, Biological Replicate1, LNP 4 ug/mL.
Where [6] appears, read: Apo protein 0.08 ug/mL, Biological Replicate2, LNP 4 ug/mL.
[7] abbreviates: Apo protein 1.25 ug/mL, Biological Replicate1, LNP 4 ug/mL.
The mark [8] stands for this setting: Apo protein 1.25 ug/mL, Biological Replicate2, LNP 4 ug/mL.
Setting [9] is: Apo protein 5.00 ug/mL, Biological Replicate1, LNP 4 ug/mL.
The mark [10] stands for this setting: Apo protein 5.00 ug/mL, Biological Replicate2, LNP 4 ug/mL.
Setting [11] is: Apo protein 10.00 ug/mL, Biological Replicate1, LNP 4 ug/mL.
[12] abbreviates: Apo protein 10.00 ug/mL, Biological Replicate2, LNP 4 ug/mL.

Take `Cc1cc2ncnn2cc1Nc1ncc2c(n1)n(C1CCC3(CC1)CC3)c(=O)n2C` [Compound 4, 7-methyl-2-((7-methyl-[1,2,4]triazolo[1,5-a]pyridin-6-yl)amino)-9-(spiro[2.5]octan-6-yl)-7,9-dihydro-8H-purin-8-one]: the “Mean percent editing at AAVS1” value in the test with AAVS1 [1] (DNAPKi 0.125 uM) was 96.77%; with AAVS1 [1] (DNAPKi 0.5 uM), 97.67%; in the test on AAVS1 [1] (DNAPKi […]), 97.37%. In addition, the “Percent of NK cells with high GFP expression, Mean” value turned out to be 88.10% in the test with AAVS1 [2] (AAV MOI 600,000, DNAPKi 0.125 uM); 90.27% in the test with AAVS1 [2] (AAV MOI 600,000, DNAPKi 0.5 uM); 90.63% in the test with AAVS1 [2] (AAV MOI 600,000, DNAPKi […]).

As to `CCCCCCCCCOC(=O)CCCCCCCN(CCO)CCCCCCCC(OCCCCCCCC)OCCCCCCCC` [Lipid B, nonyl 8-((8,8-bis(octyloxy)octyl)(2-hydroxyethyl)amino)octanoate], the “B2M editing in T cells by NGS, in words” value in the test on B2M is reported as “Efficient editing was evident”.

Turning to `CCCCCCCCCOC(=O)CCCCCCCN(CCO)CCCCCCC(OCCCCCCCC)OCCCCCCCC` [Lipid C], in the test on TRAC, the “editing in activated B cells by NGS, in words” value is reported as “Efficient editing was evident”.

In the case of “ApoA1: Recombinant Human ApoA1 used to preincubate LNPs”, the “Percent CD3 negative cells” value in the test on TRBC [3] (setting [5]) was determined as 2.9%; in the test on TRBC [3] (setting [6]) it was 2.5%; in the test on TRBC [3] (setting [7]) it was 2.8%; with TRBC [3] (setting [8]), 3.0%; in the test with TRBC [3] (setting [9]), 2.5%; in the test with TRBC [3] (setting [10]), 3.2%. Moreover, the “Percent CD3 negative cells” value in the test with TRBC [3] (setting [11]) was 3.6%; with TRBC [3] (setting [12]) it was 3.6%; in the test with TRBC [4] (setting [5]) it was 4.2%; with TRBC [4] (setting [6]), 6.2%; in the test on TRBC [4] (setting [7]), 4.7%; in the test with TRBC [4] (setting [8]) it was 4.2%. In addition, the “Percent CD3 negative cells” value with TRBC [4] (setting [9]) worked out at 6.1%; with TRBC [4] (setting [10]), 4.8%; in the test on TRBC [4] (setting [11]) it was 5.4%; in the test on TRBC [4] (setting [12]), 3.8%. Moreover, the “editing (CD3 negative cells) with LNPs preincubated with Apo protein, in words” value with TRBC [3] (Apo protein 0.08-10 ug/mL) and in the test on TRBC [4] (Apo protein 0.08-10 ug/mL) was “none of the tested concentrations of ApoA1 protein led to efficient editing” throughout.
